Our source for the IC50 values is US10562912B2 (C&C Research Laboratories, priority 2013, dated 2020).

The structures appear in SMILES notation. Where only a bound is given, the exact number is not on record here.

Common to all, as to type: cell-based
One experiment has as its system HEL92.1.7. Put plainly: Cell growth inhibition assay, blood cancer cell line HEL92.1.7. The note with it: Homo sapiens, HEL 92.1.7, HEL92.1.7 blood cancer cell line. The method in brief:
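Cells were seeded at 3,000/well (HCT116, DU-145) or 5,000/well (SW626 and the others) and exposed to serial compound dilutions for 72 to 96 h at 37 °C under 5% CO2. Viability was read as CellTiter-Glo luminescence against 0.1% DMSO and cell-free wells.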

The next experiment has as its system MDA-MB-231. Put plainly: Cell growth inhibition assay, breast cancer cell line MDA-MB-231. The note with it: Homo sapiens; MDA-MB-231 breast cancer cell line, 5,000 cells/well.
The target in a further experiment is T1, STAT3 (Homo sapiens, UniProt P40763).
T1 construct: plasmid pSTAT3-TA-luc), which contains a stably operating STAT3 promoter; endogenous in cells
T1 sequence (P40763 whole entry): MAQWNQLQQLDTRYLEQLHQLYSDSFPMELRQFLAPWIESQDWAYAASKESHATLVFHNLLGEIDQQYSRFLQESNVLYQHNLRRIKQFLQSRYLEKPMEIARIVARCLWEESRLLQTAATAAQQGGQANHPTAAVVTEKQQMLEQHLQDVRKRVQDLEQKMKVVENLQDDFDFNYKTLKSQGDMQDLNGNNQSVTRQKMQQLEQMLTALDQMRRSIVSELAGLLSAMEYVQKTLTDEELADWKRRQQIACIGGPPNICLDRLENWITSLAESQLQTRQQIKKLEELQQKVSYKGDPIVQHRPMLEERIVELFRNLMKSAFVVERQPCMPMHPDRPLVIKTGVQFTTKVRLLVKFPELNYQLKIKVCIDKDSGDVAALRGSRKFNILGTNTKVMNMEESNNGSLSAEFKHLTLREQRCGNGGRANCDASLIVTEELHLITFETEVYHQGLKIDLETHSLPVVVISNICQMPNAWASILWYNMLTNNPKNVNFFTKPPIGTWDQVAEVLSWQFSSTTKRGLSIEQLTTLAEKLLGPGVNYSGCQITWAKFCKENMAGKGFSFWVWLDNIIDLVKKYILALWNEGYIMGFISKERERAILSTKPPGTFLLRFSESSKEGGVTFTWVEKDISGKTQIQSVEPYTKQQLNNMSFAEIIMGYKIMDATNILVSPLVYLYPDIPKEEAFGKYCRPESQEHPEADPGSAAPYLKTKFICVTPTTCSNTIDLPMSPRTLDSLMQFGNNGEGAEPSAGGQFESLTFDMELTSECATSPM
Put plainly: STAT3 reporter gene assay (luciferase), LNCaP stable cell line (pSTAT3-TA-luc), IL-6 stimulation. The method in brief: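 Cytotoxicity was run on a duplicate plate with CellTiter-Glo, while the other plate gave luciferase read-outs from lysed LNCaP pSTAT3-TA-luc reporter cells. Cells were treated with graded compound concentrations plus IL-6 (10 ng/mL final) for 24–48 h in 3% DCC-FBS medium. Unstimulated and stimulated wells served as negative and positive controls.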
Background: In a reporter assay the amount or activity of a reporter protein is the signal.

Another experiment has as its system DU-145. Put plainly: Cell growth inhibition assay, prostate cancer cell line DU-145. The settings on record: Homo sapiens, DU-145 prostate cancer cell line. The method in brief:
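Luminescent CellTiter-Glo readout of viable cells after 72–96 h compound exposure (37° C., 5% CO2). Seeding: 3,000 cells/well for DU-145 and HCT116, 5,000 cells/well for SW626. Controls were medium without cells and 0.1% DMSO vehicle.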

The test system of a further experiment is U266. Put plainly: Cell growth inhibition assay, blood cancer cell line U266. The note with it: Homo sapiens, U-266 blood cancer cell line. The method, then: The inhibitory effects of the compounds of the present invention against the growth of cancer cells were evaluated as shown below. The cancer cell lines including stomach cancer cell line (AGS), breast cancer cell lines (MDA-MB-231, MDA-MB-468, and BT-549), prostate cancer cell lines (LNCaP and DU-145), colon cancer cell line (HCT116), ovarian cancer cell line (SW626), liver cancer cell line (Hep3B), kidney cancer cell line (ACHN), lung cancer cell line (NCI-H23) and blood cancer cell lines (HEL92.1.7 and U266) were cultured under the protocol provided by each supplier. A medium supplemented with 10 ng/mL of IL-6 was used for LNCaP, a prostate cancer cell line, when treated with a drug. Each type of cells to be used in experiments were sub-cultured in a 96-well plate by counting the exact number of cells using Tali™ Image-based Cytometer (Life Technologies). In a 96-well plate, AGS, HCT116, and DU-145 were employed with 3,000 cells/well; NCI-H23, SW626, Hep3B, ACHN, BT-549, MDA-MB-231, HEL92.1.7, and U266 were employed with 5,000 cells/well; and LNCaP and MDA-MB-468 were employed with 10,000 cells/well. The cells were treated with the compounds listed in Examples which were diluted in various concentrations. Upon completion of the compounds treatment, AGS, HCT116, SW626, DU145, NCI-H23, Hep3B, ACHN, BT-549, LNCaP, HEL92.1.7, and U266 cells were cultured at 37° C. under 5% CO2 for from 72 to 96 hours, and MDA-MB-231 and MDA-MB-468 cells were cultured at 37° C. in air for from 72 to 96 hours. Subsequently, the cells were observed under microscope and drug precipitation and particular findings were investigated and recorded. And then, the 96-well plate was placed at room temperature for 30 minutes, added with 20 μL/well of CellTiter-Glo solution (Cat No. G7573, Promega) and shaken for 10 minutes, followed by being subjected to the measurement using PHERAstar™ microplate reader (BMG LABTECH) according to the supplier's general luminometer protocol. Wells where only culture liquid added without cell plating were used as a negative control, whereas wells where culture liquid containing 0.1% DMSO instead of the compounds listed in Examples were used as a positive control.

The test system of the next experiment is LNCaP. Put plainly: Cell growth inhibition assay, prostate cancer cell line LNCaP (medium with 10 ng/mL IL-6). The note with it: Homo sapiens, medium supplemented with 10 ng/mL of IL-6, 10,000 cells/well.

Broadly, the IC50 is the midpoint of a concentration-inhibition curve. Low readings indicate higher potency, high ones lower potency. `COc1cc(OC(F)(F)F)cc(C(C)(C)c2cccc(NC(=O)c3cc4ccc(NS(C)(=O)=O)cc4[nH]3)c2)c1` [Example 9, N-(3-(2-(3-methoxy-5-(trifluoromethoxy)phenyl)propan-2-yl)phenyl)-6-(methylsulfonamido)-1H-indole-2-carboxamide]: the IC50 with HEL92.1.7 is 0.95 µM; in the experiment on MDA-MB-231, 0.012 µM; on STAT3, 0.056 µM; in the experiment on DU-145 it was 0.035 µM; in the experiment with U266, 0.74 µM; in the experiment with LNCaP, 0.78 µM.

Regarding `CC(C)Oc1cc(OC(F)(F)F)cc(C(C)(C)c2cc(Cl)cc(NC(=O)c3cc4cc(NS(C)(=O)=O)ncc4s3)c2)c1` [Example 71, N-(3-chloro-5-(2-(3-isopropoxy-5-(trifluoromethoxy)phenyl)propan-2-yl)phenyl)-5-(methylsulfonamido)thieno[2,3-c]pyridine-2-carboxamide], the IC50 in the experiment with HEL92.1.7 was found to be 0.13 µM; against STAT3, 0.009 µM; in the experiment with DU-145, 0.048 µM; with U266, 0.17 µM; in the experiment with LNCaP, 0.091 µM.

With `CC(C)COc1cc(OC(F)(F)F)cc(C(C)(C)c2cc(Cl)cc(NC(=O)c3cc4cc(NS(C)(=O)=O)ccc4s3)c2)c1` [Example 72, N-(3-chloro-5-(2-(3-isobutoxy-5-(trifluoromethoxy)phenyl)propan-2-yl)phenyl)-5-(methylsulfonamido)benzo[b]thiophene-2-carboxamide], the IC50 is 0.087 µM with HEL92.1.7; 0.021 µM on STAT3; 0.006 µM with DU-145; 0.1 µM in the experiment with U266; 0.034 µM with LNCaP.

As for `CCCOc1cc(OC(F)(F)F)cc(C(C)(C)c2cc(Cl)cc(NC(=O)c3cc4cc(NS(C)(=O)=O)ccc4s3)c2)c1` [Example 73, N-(3-chloro-5-(2-(3-propoxy-5-(trifluoromethoxy)phenyl)propan-2-yl)phenyl)-5-(methylsulfonamido)benzo[b]thiophene-2-carboxamide], the IC50 in the experiment on HEL92.1.7 was determined as 0.056 µM; against STAT3, 0.01 µM; in the experiment with DU-145 it was 0.006 µM; in the experiment with U266, 0.058 µM; in the experiment on LNCaP, 0.033 µM.

Consider `CC#CCOc1cc(OC(F)(F)F)cc(C(C)(C)c2cc(Cl)cc(NC(=O)c3cc4cc(NS(C)(=O)=O)ccc4s3)c2)c1` [Example 75, N-(3-(2-(3-(but-2-yn-1-yloxy)-5-(trifluoromethoxy)phenyl)propan-2-yl)-5-chlorophenyl)-5-(methylsulfonamido)benzo[b]thiophene-2-carboxamide], for which the IC50 with HEL92.1.7 is 0.02 µM; on STAT3 it was 0.008 µM; in the experiment with DU-145, 0.003 µM; in the experiment on U266, 0.021 µM; in the experiment on LNCaP, 0.029 µM.

For `CC(C)(c1cc(Cl)cc(NC(=O)c2cc3cc(NS(C)(=O)=O)ccc3s2)c1)c1cc(OCC#N)cc(OC(F)(F)F)c1` [Example 77, N-(3-chloro-5-(2-(3-(cyanomethoxy)-5-(trifluoromethoxy)phenyl)propan-2-yl)phenyl)-5-(methylsulfonamido)benzo[b]thiophene-2-carboxamide], the IC50 in the experiment on HEL92.1.7 was found to be 0.068 µM; against STAT3, 0.12 µM; in the experiment with DU-145 it was 0.05 µM; with U266 it was 0.22 µM; with LNCaP, 0.3 µM.

With `CC(C)(c1cc(Cl)cc(NC(=O)c2cc3cc(NS(C)(=O)=O)ccc3s2)c1)c1cc(OC(F)(F)F)cc(OC(F)(F)C(F)F)c1` [Example 80, N-(3-chloro-5-(2-(3-(1,1,2,2-tetrafluoroethoxy)-5-(trifluoromethoxy)phenyl)propan-2-yl)phenyl)-5-(methylsulfonamido)benzo[b]thiophene-2-carboxamide], the IC50 with HEL92.1.7 stood at 0.057 µM; against STAT3, 0.016 µM; with DU-145 it was 0.01 µM; in the experiment on U266 it was 0.063 µM; in the experiment with LNCaP it was 0.068 µM.

For the compound `CC(C)Oc1cc(OC(F)(F)F)cc(C(C)(C)c2cc(F)cc(NC(=O)c3cc4cc(NS(C)(=O)=O)ccc4s3)c2)c1` [Example 82, N-(3-fluoro-5-(2-(3-isopropoxy-5-(trifluoromethoxy)phenyl)propan-2-yl)phenyl)-5-(methylsulfonamido)benzo[b]thiophene-2-carboxamide], the IC50 in the experiment with HEL92.1.7 was found to be 0.048 µM; at STAT3, 0.024 µM; in the experiment with DU-145, 0.008 µM; in the experiment on U266, 0.045 µM; in the experiment with LNCaP, 0.03 µM.

Take `CC(C)Oc1cc(CN2CCOCC2)cc(C(C)(C)c2cc(Br)cc(NC(=O)c3cc4cc(NS(C)(=O)=O)ccc4s3)c2)c1` [Example 122, N-(3-bromo-5-(2-(3-isopropoxy-5-(morpholinomethyl)phenyl)propan-2-yl)phenyl)-5-(methylsulfonamido)benzo[b]thiophene-2-carboxamide]: the concentration for half-maximal inhibition (IC50) in the experiment on HEL92.1.7 came out at 0.19 µM; on STAT3 it was 0.12 µM; in the experiment with DU-145, 0.049 µM; in the experiment with U266, 0.18 µM; with LNCaP, 0.24 µM.

Take `CC(C)Oc1cc(CN2CCN(C(=O)OC(C)(C)C)CC2)cc(C(C)(C)c2cc(Br)cc(NC(=O)c3cc4cc(NS(C)(=O)=O)ccc4s3)c2)c1` [Example 123, tert-butyl 4-(3-(2-(3-bromo-5-(5-(methylsulfonamido)benzo[b]thiophene-2-carboxamido)phenyl)propan-2-yl)-5-isopropoxybenzyl)piperazine-1-carboxylate]: the IC50 is 0.11 µM in the experiment with HEL92.1.7; 0.046 µM against STAT3; 0.042 µM in the experiment on DU-145; 0.13 µM in the experiment on U266; 0.15 µM in the experiment with LNCaP.

Turning to `CC(C)Oc1cc(CN2CCN(C(=O)C(C)(C)C)CC2)cc(C(C)(C)c2cc(Cl)cc(NC(=O)c3cc4cc(NS(C)(=O)=O)ccc4s3)c2)c1` [Example 127, N-(3-chloro-5-(2-(3-isopropoxy-5-((4-pivaloylpiperazin-1-yl)methyl)phenyl)propan-2-yl)phenyl)-5-(methylsulfonamido)benzo[b]thiophene-2-carboxamide], the IC50 was 0.34 µM in the experiment with HEL92.1.7; 0.15 µM at STAT3; 0.066 µM in the experiment on DU-145; 0.43 µM in the experiment with U266; 0.14 µM with LNCaP.

Take `CC(C)Oc1cc(CN2CCN(c3noc(C(C)C)n3)CC2)cc(C(C)(C)c2cc(Cl)cc(NC(=O)c3cc4cc(NS(C)(=O)=O)ccc4s3)c2)c1` [Example 129, N-(3-chloro-5-(2-(3-isopropoxy-5-((4-(5-isopropyl-1,2,4-oxadiazol-3-yl)piperazin-1-yl)methyl)phenyl)propan-2-yl)phenyl)-5-(methylsulfonamido)benzo[b]thiophene-2-carboxamide]: the IC50 in the experiment with HEL92.1.7 worked out at 0.24 µM; against STAT3, 0.07 µM; with DU-145 it was 0.06 µM; in the experiment on U266, 0.28 µM; in the experiment on LNCaP, 0.12 µM.

For the compound `CC(C)Oc1cc(CN2CCN(C3COC3)CC2)cc(C(C)(C)c2cc(Cl)cc(NC(=O)c3cc4cc(NS(C)(=O)=O)ccc4s3)c2)c1` [Example 130, N-(3-chloro-5-(2-(3-isopropoxy-5-((4-(oxetan-3-yl)piperazin-1-yl)methyl)phenyl)propan-2-yl)phenyl)-5-(methylsulfonamido)benzo[b]thiophene-2-carboxamide], the IC50 was above 1.1 µM with HEL92.1.7; 0.308 µM against STAT3; 0.17 µM with DU-145; 0.74 µM in the experiment with U266; 0.76 µM with LNCaP.
